Patent US12570988B2, “Aptamers that bind thiamine analogs and derivatives” (MeiraGTx Gene Regulation Limited, priority 2020, dated 2026)

How the values were obtained:
riboswitch 15D10 [1] = assay: Luciferase reporter with 15D10 riboswitch (Luci-15D10) in AML12 cells; format: cell-based, mouse; details: for relative potency in inducing luciferase expression: AML 12 cells, compared with fursultiamine or within groups
riboswitch 15D10 [2] = assay: Luciferase reporter with 15D10 riboswitch (Luci-15D10) in HEK 293 cells; format: cell-based, human; details: HEK 293 cells; for effect on luciferase expression from Luci-15D10: FIG. 9A, 9C
Description: Transfection: 3.5×10^4 human embryonic kidney (HEK) 293 cells were plated in a 96-well flat bottom plate the day before transfection. Plasmid DNA (500 ng) was added to a tube or a 96-well U-bottom plate. […] Then, 50 μL of this diluted transfection reagent was added to the DNA, mixed, and incubated at RT for 20 min. Finally, 7 μL of this solution was added to a well of cells in the 96-well plate. Four hours after transfection, medium containing transfection solution was replaced by medium containing either TPP, fursultiamine, prosultiamine, bisbentiamine, beclotiamine hydrochloride, or sulbutiamine as aptamer inducers.
Firefly luciferase assay of cultured cells: Twenty-four hours after media change, plates were removed from the incubator, and equilibrated to RT for several minutes on a lab bench, then aspirated. Glo-lysis buffer (Promega, 100 μL, RT) was added, and the plates allowed to remain at RT for at least 5 minutes. Then, the well contents were mixed by 50 μL trituration, and 20 μL of each sample was mixed with 20 μL of bright-glo reagent (Promega) that had been diluted to 10% in glo-lysis buffer. 96 wells were spaced on an opaque white 384-well plate. Following a 5 min incubation at RT, luminescence was measured using a Tecan machine with 500 ms read time. The luciferase activity was expressed as mean arbitrary light units (ALU)±S.D., and fold induction was calculated as the quotient of the luciferase activity obtained from cells with TPP or analog treatment divided by the luciferase activity obtained from cells without TPP or analog treatment.

## C/C(=C(\CCO)SCOC(=O)C(C)C)N(C=O)Cc1cnc(C)nc1N [Compound M16, (Z)-((2-(N-((4-Amino-2-methylpyrimidin-5-yl)methyl)formamido)-5-hydroxypent-2-en-3-yl)thio)methyl isobutyrate]
Riboswitch 15D10 [1]
  relative potency in inducing luciferase expression: more potent than fursultiamine
Riboswitch 15D10 [2]
  effect on luciferase expression from Luci-15D10: increased

## C/C(=C(\CCO)SC(C)OC(=O)C(C)(C)C)N(C=O)Cc1cnc(C)nc1N (stereo not drawn) [Compound M18, (Z)-1-((2-(N-((4-Amino-2-methylpyrimidin-5-yl)methyl)formamido)-5-hydroxypent-2-en-3-yl)thio)ethyl pivalate]
Riboswitch 15D10 [2]
  effect on luciferase expression from Luci-15D10: increased

## C/C(=C(\CCO)SC(=O)c1ccccc1)N(C=O)Cc1cnc(C)nc1N [Compound M26, (Z)—S-(2-(N-((4-Amino-2-methylpyrimidin-5-yl)methyl)formamido)-5-hydroxypent-2-en-3-yl) benzothioate]
Riboswitch 15D10 [2]
  effect on luciferase expression from Luci-15D10: increased luciferase expression

## C/C(=C(\CCO)SC(=O)C(C)C)N(C=O)Cc1cnc(C)nc1N [Compound M27, (Z)—S-(2-(N-((4-Amino-2-methylpyrimidin-5-yl)methyl)formamido)-5-hydroxypent-2-en-3-yl) 2-methylpropanethioate]
Riboswitch 15D10 [2]
  effect on luciferase expression from Luci-15D10: increased luciferase expression

## C/C(=C(\CCO)SC(=O)C(C)(C)C)N(C=O)Cc1cnc(C)nc1N [Compound M28, (Z)—S-(2-(N-((4-Amino-2-methylpyrimidin-5-yl)methyl)formamido)-5-hydroxypent-2-en-3-yl) 2,2-dimethylpropanethioate]
Riboswitch 15D10 [2]
  effect on luciferase expression from Luci-15D10: increased luciferase expression

## COc1ccc(C(=O)S/C(CCO)=C(/C)N(C=O)Cc2cnc(C)nc2N)cc1 [Compound M29, (Z)—S-(2-(N-((4-Amino-2-methylpyrimidin-5-yl)methyl)formamido)-5-hydroxypent-2-en-3-yl) 4-methoxybenzothioate]
Riboswitch 15D10 [2]
  effect on luciferase expression from Luci-15D10: increased luciferase expression

## C/C(=C(\CCO)SC(=O)c1c(Cl)cccc1Cl)N(C=O)Cc1cnc(C)nc1N [Compound M30, (Z)—S-(2-(N-((4-Amino-2-methylpyrimidin-5-yl)methyl)formamido)-5-hydroxypent-2-en-3-yl) 2,6-dichlorobenzothioate]
Riboswitch 15D10 [2]
  effect on luciferase expression from Luci-15D10: no effect on luciferase expression

## C/C(=C(\CCOP(=O)(O)O)SC(=O)C(C)(C)C)N(C=O)Cc1cnc(C)nc1N [Compound M31, (Z)—S-(2-(N-((4-Amino-2-methylpyrimidin-5-yl)methyl)formamido)-5-(phosphonooxy)pent-2-en-3-yl) 2,2-dimethylpropanethioate]
Riboswitch 15D10 [2]
  effect on luciferase expression from Luci-15D10: no effect on luciferase expression

## C/C(=C(\CCOP(=O)(O)O)SC(=O)c1c(Cl)cccc1Cl)N(C=O)Cc1cnc(C)nc1N [Compound M33, (Z)—S-(2-(N-((4-Amino-2-methylpyrimidin-5-yl)methyl)formamido)-5-(phosphonooxy)pent-2-en-3-yl) 2,6-dichlorobenzothioate]
Riboswitch 15D10 [2]
  effect on luciferase expression from Luci-15D10: no effect on luciferase expression

## C/C(=C(\CCO)SC(=O)c1cccc2ccccc12)N(C=O)Cc1cnc(C)nc1N [Compound M34, (Z)—S-(2-(N-((4-Amino-2-methylpyrimidin-5-yl)methyl)formamido)-5-hydroxypent-2-en-3-yl) naphthalene-1-carbothioate]
Riboswitch 15D10 [1]
  relative potency in inducing luciferase expression: most potent inducer
Riboswitch 15D10 [1]; Mus musculus, AML12, 24 h, 50 μM, AML12 cells, Table 2, read-out: Fold increase in riboswitch 15D10-regulated luciferase expression, AML
  fold induction at 50 µM: 291
Riboswitch 15D10 [2]
  effect on luciferase expression from Luci-15D10: increased luciferase expression
Riboswitch 15D10 [2]; compared with fursultiamine or within Formula V/VI groups
  relative potency in inducing luciferase expression: most potent compound
Riboswitch 15D10 [2]; Homo sapiens, HEK293, 24 h, 50 μM, Table 2, read-out: Fold increase in riboswitch 15D10-regulated luciferase expression, HEK
  fold induction at 50 µM: 164
